Patent US20140155406A1, “4-IMIDAZOPYRIDAZIN-1-YL-BENZAMIDES AND 4-IMIDAZOTRIAZIN-1-YL-BENZAMIDES BTK INHIBITORS” (priority 2011, published 2014)

What was measured:
Type in all cases: biochemical
Lck enzyme = target: T1, Lck enzyme (Homo sapiens, UniProt P06239); assay: Lck enzyme activity, IMAP fluorescence polarization assay; conditions: 60 min pre-incubation, 6 μM ATP (Km)
T1 construct: purchased Millipore 14-442
Protocol: Lck enzyme activity is measured using the IMAP (immobilized metal ion affinity-based fluorescence polarization) assay as outlined below.
Lck enzyme (Millipore catalog#14-442), is diluted to 0.4 U/mL in KR buffer (10 mM Tris-HCl, 10 mM MgCl2, 0.01% Tween-20, 0.05% NaN3, 1 mM DTT, 2 mM MnCl2, pH 7.2). Serial dilution log 10 from 2 mM to 63.2 nM of test compounds are made in 100% DMSO. The dilutions in DMSO are then diluted 50-fold in KR-buffer of which 5 μl is used in the assay, leading to a final compound concentration range in the assay from 10 μM to 0.316 nM. 5 μL/well of test compound in KR buffer (final DMSO concentration in the assay is 1%) is mixed with 5 μl/well of 0.4 U/mL Lck enzyme (final concentration in the assay is 0.1 U/mL). Test compounds and Lck enzyme are pre-incubated 60 minutes at room temperature, before adding 5 μL/well of 400 nM Fluorescin labeled substrate peptide (p34cdc2 substrate peptide, e.g. #R7157/#R7172, Molecular Devices) in KR-buffer. Final peptide substrate concentration in assay is 100 nM. The kinase assay is started by adding 5 μL/well of 24 μM ATP in KR-buffer (final ATP concentration is 6 μM ATP, Km ATP in Lck IMAP assay). Following incubation for 2 h at room temperature the enzyme reaction is stopped by adding 40 μL/well IMAP Progressive Binding Solution (according to suppliers (Molecular Devices) protocol using 75% 1× buffer A and 25% 1× buffer B with 1:600 Progressive Binding Solution). After 60 min incubation at room temperature in the dark the FP signal is read. Fluorescence at 535 nm is measured using parallel and perpendicular filters to determine differences in rotation due to binding of the phosphorylated substrate peptide to the beads. Values are calculated as percentage of the difference in readout (ΔmPi) of the controls with and without ATP. EC50 values are determined by curve fitting of the experimental results using Activity Base.

Src enzyme = target: T2, Src enzyme (Homo sapiens, UniProt P12931); assay: Src enzyme activity, IMAP fluorescence polarization assay; conditions: 60 min pre-incubation, 4 μM ATP (Km)
T2 construct: purchased Millipore 14-326
Protocol: Src enzyme activity is measured using the IMAP (immobilized metal ion affinity-based fluorescence polarization) assay as outlined below.
Src enzyme (Millipore catalog#14-326), is diluted to 0.8 U/mL in KR buffer (10 mM Tris-HCl, 10 mM MgCl2, 0.01% Tween-20, 0.05% NaN3, 1 mM DTT, 2 mM MnCl2, pH 7.2).
Serial dilution log 10 from 2 mM to 63.2 nM of test compounds are made in 100% DMSO. The dilutions in DMSO are then diluted 50-fold in KR-buffer of which 5 μl is used in the assay, leading to a final compound concentration range in the assay from 10 μM to 0.316 nM. 5 μL/well of test compound in KR buffer (final DMSO concentration in the assay is 1%) is mixed with 5 μl/well of 0.8 U/mL Src enzyme (final concentration in the assay is 0.2 U/mL). Test compounds and Src enzyme are pre-incubated 60 minutes at room temperature, before adding 5 μL/well of 400 nM Fluorescin labeled substrate peptide (p34cdc2 substrate peptide, e.g. #R7157/#R7172, Molecular Devices) in KR-buffer. Final peptide substrate concentration in assay is 100 nM. The kinase assay is started by adding 5 μL/well of 16 μM ATP in KR-buffer (final ATP concentration is 4 μM ATP, Km ATP in Src IMAP assay). Following incubation for 2 h at room temperature the enzyme reaction is stopped by adding 40 μL/well IMAP Progressive Binding Solution (according to suppliers (Molecular Devices) protocol using 75% 1× buffer A and 25% 1× buffer B with 1:600 Progressive Binding Solution). After 60 min incubation at room temperature in the dark the FP signal is read. Fluorescence at 535 nm is measured using parallel and perpendicular filters to determine differences in rotation due to binding of the phosphorylated substrate peptide to the beads. Values are calculated as percentage of the difference in readout (ΔmPi) of the controls with and without ATP. EC50 values are determined by curve fitting of the experimental results using Activity Base.

FynT enzyme = target: T3, FynT enzyme (Homo sapiens, UniProt P06241); assay: FynT enzyme activity, IMAP fluorescence polarization assay; conditions: 60 min pre-incubation, 0.2 μM ATP (Km)
T3 construct: purchased Biomol SE-287
Protocol: FynT enzyme activity is measured using the IMAP (immobilized metal ion affinity-based fluorescence polarization) assay as outlined below.
FynT enzyme (Biomol catalog# SE-287), is diluted to 0.5 μg/mL in KR buffer (10 mM Tris-HCl, 10 mM MgCl2, 0.01% Tween-20, 0.05% NaN3, 1 mM DTT, 2 mM MnCl2, pH 7.2). Serial dilution log 10 from 2 mM to 63.2 nM of test compounds are made in 100% DMSO. The dilutions in DMSO are then diluted 50-fold in KR-buffer of which 5 μl is used in the assay, leading to a final compound concentration range in the assay from 10 μM to 0.316 nM. 5 μL/well of test compound in KR buffer (final DMSO concentration in the assay is 1%) is mixed with 5 μl/well of 0.5 μg/mL FynT enzyme (final concentration in the assay is 125 ng/mL). Test compounds and FynT enzyme are pre-incubated 60 minutes at room temperature, before adding 5 μL/well of 400 nM Fluorescin labeled substrate peptide (p34cdc2 substrate peptide, e.g. #R7157/#R7172, Molecular Devices) in KR-buffer. Final peptide substrate concentration in assay is 100 nM. The kinase assay is started by adding 5 μL/well of 0.8 μM ATP in KR-buffer (final ATP concentration is 0.2 μM ATP, Km ATP in FynT IMAP assay). Following incubation for 2 h at room temperature the enzyme reaction is stopped by adding 40 μL/well IMAP Progressive Binding Solution (according to suppliers (Molecular Devices) protocol using 75% 1× buffer A and 25% 1× buffer B with 1:600 Progressive Binding Solution). After 60 min incubation at room temperature in the dark the FP signal is read. Fluorescence at 535 nm is measured using parallel and perpendicular filters to determine differences in rotation due to binding of the phosphorylated substrate peptide to the beads. Values are calculated as percentage of the difference in readout (ΔmPi) of the controls with and without ATP. EC50 values are determined by curve fitting of the experimental results using Activity Base.

Measured: EC50

T1 sequence (P06239 whole entry): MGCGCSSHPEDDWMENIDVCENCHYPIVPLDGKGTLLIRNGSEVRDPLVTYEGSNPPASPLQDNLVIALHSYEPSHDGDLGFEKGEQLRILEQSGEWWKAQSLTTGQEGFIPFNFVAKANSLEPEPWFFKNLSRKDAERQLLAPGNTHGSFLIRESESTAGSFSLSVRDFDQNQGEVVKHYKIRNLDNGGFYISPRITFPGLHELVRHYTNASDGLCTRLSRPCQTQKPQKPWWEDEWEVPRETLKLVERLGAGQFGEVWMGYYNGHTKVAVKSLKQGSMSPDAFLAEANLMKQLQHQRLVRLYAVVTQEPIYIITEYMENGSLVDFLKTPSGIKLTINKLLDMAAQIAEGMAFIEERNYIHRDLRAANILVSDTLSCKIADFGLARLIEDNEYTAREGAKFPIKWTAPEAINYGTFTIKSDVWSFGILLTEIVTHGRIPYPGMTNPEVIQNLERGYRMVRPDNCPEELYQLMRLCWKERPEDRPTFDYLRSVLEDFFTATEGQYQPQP
T3 sequence (P06241 1-534 isoform P06241-2): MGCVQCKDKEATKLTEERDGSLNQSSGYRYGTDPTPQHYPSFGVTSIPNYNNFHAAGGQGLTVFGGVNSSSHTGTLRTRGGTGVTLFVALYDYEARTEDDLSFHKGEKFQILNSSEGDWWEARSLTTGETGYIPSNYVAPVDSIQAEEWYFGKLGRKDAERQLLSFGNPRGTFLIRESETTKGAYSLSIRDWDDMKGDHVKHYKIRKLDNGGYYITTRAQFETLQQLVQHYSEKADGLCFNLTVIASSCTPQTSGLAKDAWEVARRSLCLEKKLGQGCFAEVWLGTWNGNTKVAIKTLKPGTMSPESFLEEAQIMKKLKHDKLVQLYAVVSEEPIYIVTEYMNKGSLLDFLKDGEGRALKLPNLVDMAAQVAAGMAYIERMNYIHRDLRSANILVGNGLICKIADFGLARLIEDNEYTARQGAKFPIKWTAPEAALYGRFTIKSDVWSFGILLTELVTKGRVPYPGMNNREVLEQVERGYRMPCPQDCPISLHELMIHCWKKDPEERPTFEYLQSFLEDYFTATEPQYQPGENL
T2 sequence (P12931 whole entry): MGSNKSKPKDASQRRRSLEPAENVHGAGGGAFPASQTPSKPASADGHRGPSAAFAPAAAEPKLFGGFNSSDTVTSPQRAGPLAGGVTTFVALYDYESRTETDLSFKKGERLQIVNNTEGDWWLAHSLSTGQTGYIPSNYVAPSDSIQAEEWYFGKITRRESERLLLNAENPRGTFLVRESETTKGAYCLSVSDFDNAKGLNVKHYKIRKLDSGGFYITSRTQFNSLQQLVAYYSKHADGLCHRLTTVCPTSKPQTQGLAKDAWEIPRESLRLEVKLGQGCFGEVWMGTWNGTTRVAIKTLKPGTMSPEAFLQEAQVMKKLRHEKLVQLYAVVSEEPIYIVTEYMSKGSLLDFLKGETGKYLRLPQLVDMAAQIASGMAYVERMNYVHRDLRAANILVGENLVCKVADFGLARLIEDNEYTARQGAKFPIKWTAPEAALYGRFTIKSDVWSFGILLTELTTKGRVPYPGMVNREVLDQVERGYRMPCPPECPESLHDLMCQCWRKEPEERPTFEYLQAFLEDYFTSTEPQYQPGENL

C=CC(=O)N1CCCC[C@H]1c1nc(-c2ccc(C(=O)Nc3cc(CCC)ccn3)cc2)c2c(C)nccn12 [Example 2, (S)-4-(3-(1-Acryloylpiperidin-2-yl)-8-methylimidazo[1,5-a]pyrazin-1-yl)-N-(4-propylpyridin-2-yl)benzamide]
≥ 1000 nM: all assays above

CCCc1ccnc(NC(=O)c2ccc(-c3nc([C@@H]4CCCCN4C(=O)/C=C/CN(C)C)n4ccnc(C)c34)cc2)c1 [Example 3, (S,E)-4-(3-(1-(4-(Dimethylamino)but-2-enoyl)piperidin-2-yl)-8-methylimidazo[1,5-a]pyrazin-1-yl)-N-(4-propylpyridin-2-yl)benzamide]
≥ 1000 nM: all assays above

C=CS(=O)(=O)N1CCCC[C@H]1c1nc(-c2ccc(C(=O)Nc3cc(CCC)ccn3)cc2)c2c(C)nccn12 [Example 4, (S)-4-(8-Methyl-3-(1-(vinylsulfonyl)piperidin-2-yl)imidazo[1,5-a]pyrazin-1-yl)-N-(4-propylpyridin-2-yl)benzamide]
≥ 1000 nM: all assays above

COC/C=C/C(=O)N[C@@H](C)c1nc(-c2ccc(C(=O)Nc3cc(C(F)(F)F)ccn3)cc2)c2c(C)nccn12 [Example 6, (S,E)-4-(3-(1-(4-Methoxybut-2-enamido)ethyl)-8-methylimidazo[1,5-a]pyrazin-1-yl)-N-(4-(trifluoromethyl)pyridin-2-yl)benzamide]
≥ 1000 nM: all assays above

CC#CC(=O)N[C@@H](C)c1nc(-c2ccc(C(=O)Nc3cc(C(F)(F)F)ccn3)cc2)c2c(C)nccn12 [Example 7, (S)-4-(3-(1-But-2-ynamidoethyl)-8-methylimidazo[1,5-a]pyrazin-1-yl)-N-(4-(trifluoromethyl)pyridin-2-yl)benzamide]
≥ 1000 nM: all assays above

C=CC(=O)N[C@@H](C)c1nc(-c2ccc(C(=O)Nc3cc(C(F)(F)F)ccn3)cc2)c2c(C)nccn12 [Example 8, (S)-4-(3-(1-Acrylamidoethyl)-8-methylimidazo[1,5-a]pyrazin-1-yl)-N-(4-(trifluoromethyl)pyridin-2-yl)benzamide]
≥ 1000 nM: all assays above

C=CC(=O)N1CCC[C@H]1c1nc(-c2ccc(C(=O)Nc3cc(CCC)ccn3)cc2)c2c(C)nccn12 [Example 9, (S)-4-(3-(1-Acryloylpyrrolidin-2-yl)-8-methylimidazo[1,5-a]pyrazin-1-yl)-N-(4-propylpyridin-2-yl)benzamide]
≥ 1000 nM: all assays above

C=CC(=O)N1CCC[C@H]1c1nc(-c2ccc(C(=O)Nc3cc(C(F)(F)F)ccn3)cc2)c2c(C)nccn12 [Example 10, (S)-4-(3-(1-Acryloylpyrrolidin-2-yl)-8-methylimidazo[1,5-a]pyrazin-1-yl)-N-(4-(trifluoromethyl)pyridin-2-yl)benzamide]
≥ 1000 nM: all assays above

C=CC(=O)N1CCC[C@H]1c1nc(-c2ccc(C(=O)Nc3cc(C#N)ccn3)cc2)c2c(C)nccn12 [Example 13, (S)-4-(3-(1-Acryloylpyrrolidin-2-yl)-8-methylimidazo[1,5-a]pyrazin-1-yl)-N-(4-cyanopyridin-2-yl)benzamide]
≥ 1000 nM: all assays above

CC#CC(=O)N1CCC[C@H]1c1nc(-c2ccc(C(=O)Nc3cc(C)ccn3)cc2)c2c(C)nccn12 [Example 15, (S)-4-(3-(1-but-2-ynoylpyrrolidin-2-yl)-8-methylimidazo[1,5-a]pyrazin-1-yl)-N-(4-methylpyridin-2-yl)benzamide]
≥ 1000 nM: all assays above

CCCc1ccnc(NC(=O)c2ccc(-c3nc([C@H](C)N(C)C(=O)/C=C/CN(C)C)n4ccnc(C)c34)cc2)c1 [Example 18, (S,E)-4-(3-(1-(4-(dimethylamino)-N-methylbut-2-enamido)ethyl)-8-methylimidazo[1,5-a]pyrazin-1-yl)-N-(4-propylpyridin-2-yl)benzamide]
≥ 1000 nM: all assays above

C=CC(=O)N1CCC[C@H]1c1nc(-c2ccc(C(=O)Nc3ccccn3)cc2)c2c(C)nccn12 [Example 19, (S)-4-(3-(1-acryloylpyrrolidin-2-yl)-8-methylimidazo[1,5-a]pyrazin-1-yl)-N-(pyridin-2-yl)benzamide]
≥ 1000 nM: all assays above

Cc1nccn2c([C@@H]3CCCCN3C(=O)/C=C/CN3CCCC3)nc(-c3ccc(C(=O)Nc4cc(C(F)(F)F)ccn4)cc3)c12 [Example 21, (S,E)-4-(8-methyl-3-(1-(4-(pyrrolidin-1-yl)but-2-enoyl)piperidin-2-yl)imidazo[1,5-a]pyrazin-1-yl)-N-(4-(trifluoromethyl)pyridin-2-yl)benzamide]
≥ 1000 nM: all assays above
